From ChEMBL document CHEMBL5120948, “Ynamide Electrophile for the Profiling of Ligandable Carboxyl Residues in Live Cells and the Development of New Covalent Inhibitors” (J Med Chem, 2022)
pIC50: −log10 of the molar value. Active and inactive are the calls of the source. No cut-off for these calls is given here.

What was measured:
Albumin [1] = molecular target: T1, Albumin (Bos taurus, UniProt P02769); assay: Binding affinity to bovine serum albumin assessed as increase in fluorescence intensity at 10 uM measured after 4 hrs by TAMRA-N3 based In-gel fluorescence scanning analysis; conditions: cattle
[2] = Stability of the compound in DMSO/H2O solution measured after 7 days by 1H-NMR analysis; format: physicochemical; conditions: 168 h; time 7 day
[3] = Binding affinity to glutamic acid in aqueous solution measured within 3 hrs by HPLC analysis
Albumin [4] = molecular target: T1, Albumin; assay: Binding affinity to bovine serum albumin assessed as increase in fluorescence intensity at 5 uM measured after 30 mins by TAMRA-N3 based In-gel fluorescence scanning analysis; conditions: cattle, 0.5 h
Albumin [5] = molecular target: T1, Albumin; assay: Binding affinity to bovine serum albumin assessed as increase in fluorescence intensity at 10 uM measured after 4 hrs in presence of N,4-Dimethyl-N-(phenylethynyl)benzenesulfonamide by TAMRA-N3 based In-gel fluorescence scanning analysis; conditions: cattle
Homo sapiens = species: Homo sapiens; assay: Binding affinity to beta-amylase (unknown origin) measured after 30 mins by TAMRA-N3 based In-gel fluorescence scanning analysis; conditions: dose 5-50 µM
Catalase (Homo sapiens) = Catalase (Homo sapiens) (UniProt P04040); assay: Binding affinity to catalase (unknown origin) measured after 30 mins by TAMRA-N3 based In-gel fluorescence scanning analysis; conditions: dose 5-50 µM
[6] = test system: GTPase KRas (Homo sapiens), P01116 [G12D]; assay: Binding affinity to KRAS G12D mutant (unknown origin) measured after 30 mins by TAMRA-N3 based In-gel fluorescence scanning analysis; conditions: dose 5-50 µM
[7] = molecular target: Aldehyde dehydrogenase 1A1 (Homo sapiens) (UniProt P00352); assay: Binding affinity to ALDH1 in human HepG2 cells at 100 uM incubated for 8 hrs by pull-down/Western blot analysis; format: cell-based
[8] = molecular target: Aldehyde dehydrogenase, mitochondrial (Homo sapiens) (UniProt P05091); assay: Binding affinity to ALDH2 in human HepG2 cells at 100 uM incubated for 8 hrs by pull-down/Western blot analysis; format: cell-based
[9] = molecular target: Dual specificity mitogen-activated protein kinase kinase 2 (Homo sapiens) (UniProt P36507); assay: Binding affinity to MEK2 in human HepG2 cells at 100 uM incubated for 8 hrs by pull-down/Western blot analysis; format: cell-based
[10] = molecular target: Delta(3,5)-Delta(2,4)-dienoyl-CoA isomerase, mitochondrial (Homo sapiens) (UniProt Q13011); assay: Binding affinity to ECH1 in human HepG2 cells at 100 uM incubated for 8 hrs by pull-down/Western blot analysis; format: cell-based
HepG2 [11] = assay: Binding affinity to G3P in human HepG2 cells at 100 uM incubated for 8 hrs by pull-down/Western blot analysis; format: cell-based
[12] = molecular target: Dual specificity mitogen-activated protein kinase kinase 2 (Homo sapiens) (UniProt P36507); assay: Stabilization of MEK2 in human HepG2 cells assessed as increase in thermal stability at 50 uM incubated for 3 hrs by cellular thermal shift assay; format: cell-based
HepG2 [13] = assay: Inhibition of ERK phosphorylation in human HepG2 cells at 5 to 40 uM by Western blot analysis; format: cell-based; conditions: dose 5-40 µM
[14] = molecular target: Epidermal growth factor receptor (Homo sapiens, UniProt P00533, L858R); assay: Inhibition of EGFR L858R mutant (unknown origin) using peptide substrate by FRET assay
BaF3 = assay: Growth inhibition of mouse BaF3 cells harbouring EGFR L858R mutant incubated for 72 hrs by CCK8 assay; format: functional, cell-based; conditions: BaF3, 72 h
[15] = Growth inhibition of mouse Ba/F3 EGFR cells incubated for 72 hrs by CCK8 assay; format: functional, cell-based
NCI-H3255 [16] = assay: cells; format: functional, cell-based; conditions: Homo sapiens, NCI-H3255, 72 h
Description: Growth inhibition of human NCI-H3255 cells harbouring EGFR L858R mutant incubated for 72 hrs by CCK8 assay

A549 = assay: cells; format: functional, cell-based; conditions: Homo sapiens, A549, 72 h
Description: Growth inhibition of human A549 cells expressing EGFR incubated for 72 hrs by CCK8 assay

[17] = test system: Epidermal growth factor receptor (Homo sapiens), P00533 [L858R]; assay: Binding affinity to EGFR L858R mutant in human NCI-H3255 cells at 10 uM incubated for 8 hrs by pull-down/Western blot analysis; format: cell-based
[18] = test system: Epidermal growth factor receptor (Homo sapiens), P04626+P00533+Q15303+P21860 [L858R]; assay: Binding affinity to EGFR L858R mutant in mouse BaF3 cells at 10 uM incubated for 8 hrs by pull-down/Western blot analysis; format: cell-based
[19] = test system: Epidermal growth factor receptor (Homo sapiens), P00533 [L858R]; assay: Binding affinity to EGFR L858R mutant in human NCI-H3255 cells assessed as increase in thermal stability at 0.5 uM incubated for 3 hrs by cellular thermal shift assay; format: cell-based
NCI-H3255 [20] = assay: Inhibition of colony formation in human NCI-H3255 cells at 1.1 uM by Giemsa staining based assay; format: functional, cell-based
[21] = molecular target: Epidermal growth factor receptor (Homo sapiens) (UniProt P00533); assay: Inhibition of EGFR phosphorylation in human NCI-H3255 cells at 0.22 to 20 uM; format: cell-based; conditions: dose 0.22-20 µM
[22] = molecular target: Epidermal growth factor receptor (Homo sapiens) (UniProt P00533); assay: Inhibition of EGFR in human NCI-H3255 cells assessed as decrease in AKT phosphorylation level at 0.22 to 20 uM; format: cell-based; conditions: dose 0.22-20 µM
[23] = molecular target: Epidermal growth factor receptor (Homo sapiens) (UniProt P00533); assay: Inhibition of EGFR in human NCI-H3255 cells assessed as decrease in ERK phosphorylation level at 0.22 to 20 uM; format: cell-based; conditions: dose 0.22-20 µM
[24] = molecular target: ATP-dependent translocase ABCB1 (Homo sapiens, UniProt P08183); assay: Binding affinity to MDR1 in human HepG2 cells at 10 uM incubated for 8 hrs by pull-down/LC-MS/MS analysis; format: cell-based; conditions: hepg2, 8 h
[25] = molecular target: Leucine-rich PPR motif-containing protein, mitochondrial (Homo sapiens) (UniProt P42704); assay: Binding affinity to LPPRC in human HepG2 cells at 10 uM incubated for 8 hrs by pull-down/LC-MS/MS analysis; format: cell-based
[26] = molecular target: Glutathione S-transferase 3, mitochondrial (Homo sapiens) (UniProt O14880); assay: Binding affinity to MGST3 in human HepG2 cells at 10 uM incubated for 8 hrs by pull-down/LC-MS/MS analysis; format: cell-based
[27] = molecular target: Ubiquitin-like modifier-activating enzyme 1 (Homo sapiens) (UniProt P22314); assay: Binding affinity to UBA1 in human HepG2 cells at 10 uM incubated for 8 hrs by pull-down/LC-MS/MS analysis; format: cell-based
NCI-H3255 [28] = assay: Inhibition of colony formation in human NCI-H3255 cells at 10 uM by Giemsa staining based assay; format: functional

T1 sequence (P02769 whole entry): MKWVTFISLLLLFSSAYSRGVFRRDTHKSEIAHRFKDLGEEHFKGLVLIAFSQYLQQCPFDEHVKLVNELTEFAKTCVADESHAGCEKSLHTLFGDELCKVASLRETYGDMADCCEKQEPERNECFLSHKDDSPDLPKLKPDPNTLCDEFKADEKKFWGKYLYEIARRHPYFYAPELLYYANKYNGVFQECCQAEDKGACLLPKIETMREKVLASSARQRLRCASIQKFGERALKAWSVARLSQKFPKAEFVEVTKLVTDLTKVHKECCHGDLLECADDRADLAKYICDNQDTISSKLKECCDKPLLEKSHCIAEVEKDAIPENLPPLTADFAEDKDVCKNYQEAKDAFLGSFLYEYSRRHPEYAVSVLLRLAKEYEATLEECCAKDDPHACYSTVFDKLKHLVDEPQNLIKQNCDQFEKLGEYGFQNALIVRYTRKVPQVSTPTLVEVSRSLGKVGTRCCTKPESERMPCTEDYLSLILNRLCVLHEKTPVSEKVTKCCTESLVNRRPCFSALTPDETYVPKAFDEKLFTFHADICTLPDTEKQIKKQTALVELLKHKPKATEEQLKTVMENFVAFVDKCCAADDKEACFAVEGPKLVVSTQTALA
Sequence of Dual specificity mitogen-activated protein kinase kinase 2 (Homo sapiens) (P36507 whole entry): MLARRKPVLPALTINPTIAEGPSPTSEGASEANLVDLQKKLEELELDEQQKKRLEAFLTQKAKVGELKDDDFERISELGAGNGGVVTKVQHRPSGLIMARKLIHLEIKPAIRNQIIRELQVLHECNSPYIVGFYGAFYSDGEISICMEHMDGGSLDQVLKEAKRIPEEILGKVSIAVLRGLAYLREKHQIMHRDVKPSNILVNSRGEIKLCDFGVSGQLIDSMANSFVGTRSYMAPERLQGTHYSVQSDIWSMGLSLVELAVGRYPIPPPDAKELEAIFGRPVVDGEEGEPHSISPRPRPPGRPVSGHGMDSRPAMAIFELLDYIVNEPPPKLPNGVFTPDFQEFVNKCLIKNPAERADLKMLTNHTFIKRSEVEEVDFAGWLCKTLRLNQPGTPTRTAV
Sequence of ATP-dependent translocase ABCB1 (P08183 whole entry): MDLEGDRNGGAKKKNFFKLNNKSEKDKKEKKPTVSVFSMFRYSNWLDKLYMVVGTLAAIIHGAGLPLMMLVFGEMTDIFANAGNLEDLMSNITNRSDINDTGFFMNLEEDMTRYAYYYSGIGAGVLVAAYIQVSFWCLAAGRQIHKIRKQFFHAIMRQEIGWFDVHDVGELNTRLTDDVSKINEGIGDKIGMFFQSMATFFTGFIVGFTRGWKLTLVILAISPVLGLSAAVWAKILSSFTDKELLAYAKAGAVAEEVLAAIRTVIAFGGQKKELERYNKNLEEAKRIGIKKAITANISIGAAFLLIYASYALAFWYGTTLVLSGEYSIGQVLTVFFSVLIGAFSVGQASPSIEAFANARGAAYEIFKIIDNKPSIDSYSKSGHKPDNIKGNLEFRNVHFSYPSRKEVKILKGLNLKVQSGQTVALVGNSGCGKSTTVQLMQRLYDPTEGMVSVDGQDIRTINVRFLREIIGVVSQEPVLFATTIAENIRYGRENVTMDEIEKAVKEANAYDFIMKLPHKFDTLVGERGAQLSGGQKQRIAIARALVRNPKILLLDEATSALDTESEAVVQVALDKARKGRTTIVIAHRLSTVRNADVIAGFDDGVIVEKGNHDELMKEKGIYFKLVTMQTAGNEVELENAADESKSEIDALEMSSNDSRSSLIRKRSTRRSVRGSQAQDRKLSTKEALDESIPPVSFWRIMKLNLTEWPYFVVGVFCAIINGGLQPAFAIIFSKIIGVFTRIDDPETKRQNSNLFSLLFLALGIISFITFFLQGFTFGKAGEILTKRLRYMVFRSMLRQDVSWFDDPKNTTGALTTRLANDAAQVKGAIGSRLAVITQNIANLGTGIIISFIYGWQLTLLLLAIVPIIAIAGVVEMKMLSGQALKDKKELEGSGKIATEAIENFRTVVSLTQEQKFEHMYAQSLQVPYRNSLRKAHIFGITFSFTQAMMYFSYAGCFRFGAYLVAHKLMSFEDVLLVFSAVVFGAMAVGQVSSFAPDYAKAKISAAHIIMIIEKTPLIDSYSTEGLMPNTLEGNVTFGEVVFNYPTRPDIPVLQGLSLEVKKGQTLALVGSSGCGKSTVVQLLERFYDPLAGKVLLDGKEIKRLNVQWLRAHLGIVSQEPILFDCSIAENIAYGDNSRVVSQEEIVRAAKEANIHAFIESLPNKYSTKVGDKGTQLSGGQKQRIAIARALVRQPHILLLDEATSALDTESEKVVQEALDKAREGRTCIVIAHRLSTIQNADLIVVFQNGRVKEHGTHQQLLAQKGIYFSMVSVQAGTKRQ
Sequence of Catalase (Homo sapiens) (P04040 whole entry): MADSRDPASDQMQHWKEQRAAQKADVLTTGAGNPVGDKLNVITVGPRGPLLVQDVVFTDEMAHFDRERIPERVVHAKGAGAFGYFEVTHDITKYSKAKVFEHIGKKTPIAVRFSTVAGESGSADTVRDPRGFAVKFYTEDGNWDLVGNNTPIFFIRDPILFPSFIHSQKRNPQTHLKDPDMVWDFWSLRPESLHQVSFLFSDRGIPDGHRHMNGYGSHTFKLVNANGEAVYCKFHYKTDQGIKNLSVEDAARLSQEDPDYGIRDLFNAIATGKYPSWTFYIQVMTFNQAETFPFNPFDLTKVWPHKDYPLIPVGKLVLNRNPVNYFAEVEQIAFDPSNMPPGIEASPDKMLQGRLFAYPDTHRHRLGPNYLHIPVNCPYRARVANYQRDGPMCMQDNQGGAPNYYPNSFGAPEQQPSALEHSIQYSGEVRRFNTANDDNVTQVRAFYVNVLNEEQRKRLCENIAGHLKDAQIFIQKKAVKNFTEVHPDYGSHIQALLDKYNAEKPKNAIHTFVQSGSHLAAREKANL
Sequence of GTPase KRas (Homo sapiens), P01116 [G12D] (P01116 whole entry G12D, looked up): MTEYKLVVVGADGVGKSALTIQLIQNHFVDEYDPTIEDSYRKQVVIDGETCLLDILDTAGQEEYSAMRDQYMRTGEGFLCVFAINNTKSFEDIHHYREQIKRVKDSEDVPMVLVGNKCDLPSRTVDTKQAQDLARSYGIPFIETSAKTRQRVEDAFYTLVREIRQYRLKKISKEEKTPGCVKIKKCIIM
Sequence of Ubiquitin-like modifier-activating enzyme 1 (Homo sapiens) (P22314 whole entry): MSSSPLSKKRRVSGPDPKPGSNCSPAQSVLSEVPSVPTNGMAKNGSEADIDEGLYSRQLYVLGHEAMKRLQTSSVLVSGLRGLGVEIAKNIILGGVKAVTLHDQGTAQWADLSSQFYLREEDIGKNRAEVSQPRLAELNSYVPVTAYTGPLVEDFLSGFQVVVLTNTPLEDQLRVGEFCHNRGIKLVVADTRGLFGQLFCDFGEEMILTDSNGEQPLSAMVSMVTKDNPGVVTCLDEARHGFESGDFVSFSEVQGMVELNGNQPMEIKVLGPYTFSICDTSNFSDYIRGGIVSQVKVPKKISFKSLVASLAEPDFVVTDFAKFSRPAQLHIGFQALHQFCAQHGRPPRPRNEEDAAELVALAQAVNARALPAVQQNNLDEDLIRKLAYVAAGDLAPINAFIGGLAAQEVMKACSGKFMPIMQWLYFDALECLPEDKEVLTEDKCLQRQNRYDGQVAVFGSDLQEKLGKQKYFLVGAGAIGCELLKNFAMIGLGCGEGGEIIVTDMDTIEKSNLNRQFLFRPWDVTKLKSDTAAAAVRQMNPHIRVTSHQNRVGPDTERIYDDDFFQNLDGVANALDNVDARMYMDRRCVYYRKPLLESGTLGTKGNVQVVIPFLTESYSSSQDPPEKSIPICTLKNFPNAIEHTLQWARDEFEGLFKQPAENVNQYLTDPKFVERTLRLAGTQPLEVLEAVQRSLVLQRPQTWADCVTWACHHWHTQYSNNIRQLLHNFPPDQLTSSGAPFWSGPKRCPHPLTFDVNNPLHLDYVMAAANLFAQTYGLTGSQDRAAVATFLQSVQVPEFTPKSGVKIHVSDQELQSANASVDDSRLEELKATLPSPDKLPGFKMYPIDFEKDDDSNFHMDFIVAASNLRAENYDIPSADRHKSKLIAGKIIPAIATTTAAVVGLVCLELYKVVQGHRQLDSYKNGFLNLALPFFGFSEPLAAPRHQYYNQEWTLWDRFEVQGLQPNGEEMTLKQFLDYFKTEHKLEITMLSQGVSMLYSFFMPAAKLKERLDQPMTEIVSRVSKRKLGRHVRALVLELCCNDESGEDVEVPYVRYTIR
Sequence of Glutathione S-transferase 3, mitochondrial (Homo sapiens) (O14880 whole entry): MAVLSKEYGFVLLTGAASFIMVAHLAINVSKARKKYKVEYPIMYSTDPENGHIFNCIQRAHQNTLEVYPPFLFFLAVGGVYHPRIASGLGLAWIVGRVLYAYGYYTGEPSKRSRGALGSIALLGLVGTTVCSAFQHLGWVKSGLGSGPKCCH
Sequence of Delta(3,5)-Delta(2,4)-dienoyl-CoA isomerase, mitochondrial (Homo sapiens) (Q13011 whole entry): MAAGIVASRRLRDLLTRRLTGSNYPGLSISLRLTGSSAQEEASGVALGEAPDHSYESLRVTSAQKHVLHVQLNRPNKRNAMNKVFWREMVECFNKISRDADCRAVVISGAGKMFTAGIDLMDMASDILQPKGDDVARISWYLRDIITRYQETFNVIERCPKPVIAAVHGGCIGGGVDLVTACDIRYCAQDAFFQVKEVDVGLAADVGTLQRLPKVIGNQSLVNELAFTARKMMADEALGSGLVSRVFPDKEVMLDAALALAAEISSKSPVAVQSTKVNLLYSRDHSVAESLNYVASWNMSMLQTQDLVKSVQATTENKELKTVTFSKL

With `C#Cc1ccc(OCc2ccc(S(=O)(=O)N(C)C#C)cc2)cc1` the Activity (Albumin [1]) was “Active”.
For `C#Cc1ccc(S(=O)(=O)N(C)C#C)cc1`, the Stability [2] was “Stable”, the Activity [3] was “Active” and the Activity (Albumin [1]) was “Active”. For the same molecule, the Activity (Albumin [4]) was “Active”, the Activity (Albumin [5]) was “Active” and the Activity (Homo sapiens) was “Active”. For the same molecule, the Activity (Catalase (Homo sapiens)) was “Active”, the Activity [6] was “Active” and the Activity [7] was “Active”. The Activity [8] was “Active”, the Activity [9] was “Active” and the Activity [10] was “Active”. The Activity (HepG2 [11]) was “Active”, the Activity [12] was “Active” and the inhibition (HepG2 [13]) was “Active”.
For `C#Cc1cccc(Oc2ncnc3ccc(OCc4ccc(S(=O)(=O)N(C)C#C)cc4)cc23)c1`, the Activity (Albumin [1]) was “Active”, the pIC50 [14] was 5.25 and the pIC50 (BaF3) was 5.77. It also gave a pIC50 [15] of 5.19, a pIC50 (NCI-H3255 [16]) of 5.72 and a pIC50 (A549) of 5.12. The Activity [17] was “Active”, the Activity [18] was “Active” and the Activity [19] was “Active”. For the same molecule, the inhibition (NCI-H3255 [20]) was “Active”, the inhibition [21] was “Active” and the inhibition [22] was “Active”. For the same molecule, the inhibition [23] was “Active”, the Activity [24] was “Active” and the Activity [25] was “Active”. For the same molecule, the Activity [26] was “Active”, the Activity [27] was “Active” and the inhibition at 10 µM (NCI-H3255 [28]) was 100%.
With `C#Cc1cccc(Oc2ncnc3ccc(OCc4ccc(S(=O)(=O)NC)cc4)cc23)c1` the pIC50 (NCI-H3255 [16]) was 5.11 and the pIC50 (A549) was < 4.30.
